# How the values were obtained:
# [1] = tested on: patients suffering from terminal state of cancer; settings: LSD treatment; cited from earlier work
# [2] = tested on: patients with alcohol dependence; settings: therapy with LSD; cited from earlier work
# [3] = tested on: patients with personality trait disturbance or anxiety; settings: LSD as an aid to psychotherapy; cited from earlier work
# [4] = tested on: patients in a treatment program of alcoholism; settings: LSD together with psychotherapy vs psychotherapy alone; cited from earlier work
# [5] = tested on: patients with anxiety associated with life-threatening diseases; settings: 12 patients; two months follow-up; cited from earlier work
# [6] = oral; cited from earlier work
# 5-HT2A receptor = 5-HT2A receptor (Homo sapiens, UniProt P28223); settings: compared with 5-MeO-DMT; cited from earlier work
# [7] = Clinical trial of inhaled 5-MeO-DMT in healthy volunteers: 5-MeO-DMT and bufotenine plasma levels; format: in vivo, human; settings: all other samples (1 hour and 3 hours) after inhaled 5-MeO-DMT
# Procedure: The trial consisted of two parts: Part A, where single doses of 5-MeO-DMT dosage amounts of 2 mg, 6 mg, 12 mg and 18 mg were administered; and Part B, where an initial 5-MeO-DMT dosage amount of 6 mg was administered, and then, unless the participant had already experienced a peak psychedelic experience based on the PPEQ or the supervising physician had decided that further dose increases were inappropriate based on observed side effects, further subsequent dosage amounts of 12 mg and 18 mg were administered with about 3 hours in between each administration. […] Pharmacokinetic analysis of 5-MeO-DMT and bufotenine plasma levels was performed at 1 hour and 3 hours after drug administration in Part A, and at 3 hours after drug administration in Part B.
# [8] = tested on: patients with treatment-resistant depression; settings: in vivo; cited from earlier work
# 5-HT2A receptor, sequence (P28223 whole entry): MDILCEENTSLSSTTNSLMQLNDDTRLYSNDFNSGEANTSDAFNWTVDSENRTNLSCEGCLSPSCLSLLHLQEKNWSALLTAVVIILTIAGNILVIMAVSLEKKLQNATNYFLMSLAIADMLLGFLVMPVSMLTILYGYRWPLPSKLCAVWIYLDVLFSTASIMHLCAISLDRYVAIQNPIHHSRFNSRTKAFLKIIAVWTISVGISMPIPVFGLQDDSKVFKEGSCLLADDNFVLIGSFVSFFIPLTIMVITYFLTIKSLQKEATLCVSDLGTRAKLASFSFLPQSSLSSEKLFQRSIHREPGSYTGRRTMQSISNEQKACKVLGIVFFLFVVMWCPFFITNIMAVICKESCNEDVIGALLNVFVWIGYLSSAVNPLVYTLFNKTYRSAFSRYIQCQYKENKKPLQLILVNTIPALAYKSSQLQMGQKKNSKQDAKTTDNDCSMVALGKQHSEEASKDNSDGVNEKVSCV
smiles,measurement,setting,value
"CCN(CC)C(=O)[C@@H]1C=C2c3cccc4[nH]cc(c34)C[C@H]2N(C)C1 [LSD, lysergic acid diethylamide]",Fraction of patients who improved in varying degrees,[1],about two-thirds
same,Patients changed (stop drinking or are much improved),[2],50%
same,"Patients with outcome of ""much improved"" or ""improved""",[3],over 90%
same,Rates of abstinence or improvement,[4],higher rates of abstinence or improvement
same,Anxiety measures,[5],significant effects
same,Duration of acute psychedelic effects,[6],several hours
CN(C)CCc1c[nH]c2ccc(O)cc12 [bufotenine],Affinity for the 5-HT2A receptor,5-HT2A receptor,much higher affinity than 5-MeO-DMT itself
same,Bufotenine (5-MeO-DMT metabolite) plasma levels,[7],undetectable
CN(C)CCc1c[nH]c2cccc(OP(=O)(O)O)c12 [psilocybin],Frequently reported side effects,[8],"anxiety, headache and nausea"

# Source: patent US20250134861A1, “COMPOSITIONS COMPRISING 5-METHOXY-N,N-DIMETHYLTRYPTAMINE (5-MEO-DMT) FOR USE IN TREATING MENTAL DISORDERS” (GH RESEARCH IRELAND LIMITED, priority 2019, published 2025)
